Source: doi:10.1101/2024.09.13.612887 (2024)

Each compound was assayed on F. ulcerans ZTP riboswitch SPR construct RNA (RNA, riboswitch) UAUCAGUUAUAUGACUGACGGAACGUGGAAUUAACCACAUGAAGUAUAACGAUGACAAUGCCGACCGUCUGGGCGUUCAUUAGCGGUAUUCCGGAAC … (assay: SPR). Details: 150 mM KCl, 10 mM MgCl2; 50 mM HEPES-KOH pH 7.4, 0.005% Tween-20, 5% DMSO; apparent, no saturation, exceeds 1:1 Rmax.

Row | SMILES | KD
1 | NC(=O)c1ncn(-c2ccc(-c3cnc[nH]3)cc2)c1N | ~ 900 nM

These compounds were tested on S. ondontolytica ZTP riboswitch used for crystallography (64-nt) (RNA, riboswitch, 5'-hydroxyl (hammerhead-cleaved, lacks 5'-phosphate)) GGGUCGUGACUGGCGAACAGGUGGGAAACCACCGGGGAGCGACCCUUGCCGCCCGCCUGGGCAA (assay: X-ray crystallography). Details: Mg2+; co-crystal structure, 2.2 Å, partially refined.

Row | SMILES | binding
2 | NC(=O)c1ncn(-c2cnc3ncccc3c2)c1N | yes

Same assay, conditions: Mg2+; co-crystal structure, 2.4 Å

Row | SMILES | binding
3 | NC(=O)c1ncn(-c2cccnc2)c1N | yes

The compounds below were run on F. ulcerans ZTP riboswitch ITC construct RNA (aptamer domain) (RNA, riboswitch) UAUCAGUUAUAUGACUGACGGAACGUGGAAUUAACCACAUGAAGUAUAACGAUGACAAUGCCGACCGUCUGGGCG (assay: ITC). Details: 150 mM KCl, 10 mM MgCl2; 50 mM HEPES-KOH pH 7.4, 37 °C; table value, text b16 says KD >30 μM.

Row | SMILES | KD [µM]
4 | COc1ccncc1-n1cnc(C(N)=O)c1N | 4.16 ± 0.68

Same assay, conditions: 150 mM KCl, 10 mM MgCl2; 50 mM HEPES-KOH pH 7.4, up to 3% DMSO, 37 °C

Row | SMILES | KD [µM]
5 | NC(=O)c1ncn(-c2cnc3cccnc3c2)c1N | 0.864 ± 0.21
6 | NC(=O)c1ncn(-c2ccc(NCc3ccccc3)nc2)c1N | 13.8 ± 1.5
7 | NC(=O)c1ncn(-c2ccc3ncccc3c2)c1N | 1.28 ± 0.26
8 | NC(=O)c1ncn(-c2ccc(Cl)nc2)c1N | 2.19 ± 1.4
9 | NC(=O)c1ncn(-c2ccccc2)c1N | 1.84 ± 0.41
10 | NC(=O)c1ncn(-c2cnc3ncccc3c2)c1N | 0.778 ± 0.28
11 | CNc1ccc(-n2cnc(C(N)=O)c2N)cn1 | 2.40 ± 0.36
12 | NC(=O)c1ncn(-c2ccc(-c3cnc[nH]3)cc2)c1N | 1.46 ± 0.21
13 | NC(=O)c1ncn(-c2ccc3cccnc3c2)c1N | 1.36 ± 0.17
14 | NC(=O)c1ncn(Cc2ccncc2)c1N | 15.0 ± 7.1
15 | NC(=O)c1cccc(-n2cnc(C(N)=O)c2N)c1 | 3.52 ± 0.60
16 | NC(=O)c1ncn(-c2cccc(O)c2)c1N | 2.47 ± 0.37
17 | NC(=O)c1ncn(-c2ccc3[nH]ccc3c2)c1N | 3.20 ± 1.3
18 | NC(=O)c1ncn(-c2ccc(-c3ncc[nH]3)nc2)c1N | 3.18 ± 0.44
19 | NC(=O)c1ncn(-c2cncnc2)c1N | 1.22 ± 0.45
20 | NC(=O)c1ncn(-c2ccc3cc[nH]c3c2)c1N | 4.99 ± 0.64
21 | COc1ccc(-n2cnc(C(N)=O)c2N)cn1 | 2.45 ± 0.44

Same assay, conditions: 150 mM KCl, 10 mM MgCl2; 50 mM HEPES-KOH pH 7.4, up to 3% DMSO, 37 °C; N.B. (>30 μM or not measurable)

Row | SMILES | KD [µM]
22 | NC(=O)c1ncn(Cc2cnccn2)c1N | > 30
23 | NC(=O)c1ncn(Cc2ccccc2)c1N | > 30
24 | NC(=O)c1cn(-c2ccncc2)cn1 | > 30
25 | NC(=O)c1ncn([C@H]2CCCNC2)c1N | > 30
26 | NC(=O)c1ncn([C@@H]2CCCNC2)c1N | > 30
27 | NC(=O)c1ncn(-c2cccc3cccnc23)c1N | > 30
28 | Cc1ncccc1-n1cnc(C(N)=O)c1N | > 30

Same assay, conditions: 150 mM KCl, 10 mM MgCl2; 50 mM HEPES-KOH pH 7.4, up to 3% DMSO, 37 °C; text prints 13.7 ± 7.8

Row | SMILES | KD [µM]
29 | NC(=O)c1nnn(-c2cccnc2)c1N | 13.5 ± 7.85
